In patent US11034725B2, “Compositions and methods for treating cardiovascular disease” (Genentech, Inc., priority 2016, dated 2021):
Where two headings read alike, the source gives them in different places. Numbered stars: 1 amine (or outer) side, 2 acyl side, 3 side chain; on linkers, the order of the positions; unused ones are H or OH. Bridge positions count the residues as written; N and C are the ends. Square brackets hold non-standard residues; d marks the D form. Peptide text beside a SMILES is read from it. * marks the point of attachment. Desaminohistidyl = O=C(CCc1c[nH]cn1)*; X21 = O=C([C@@H]1C[C@@H]1c1cccnc1)*; X44 = Cn1cc([C@H]2C[C@H]2C(=O)*)cn1; X5 = Cn1cc([C@@H]2C[C@H]2C(=O)*)cn1; X14 = O=C(CC1CCN([*:1])CC1)[*:2]; hArg = N=C(N)NCCCC[C@H](N)C(=O)O; X24 = CN1CCC(n2cc(C(=O)*)cn2)C1; X3 = O=C(CC1CCN(Cc2ccccn2)CC1)*; X13 = O=C(CCN1CCS(=O)(=O)CC1)*; X34 = NC(=O)N1CCN(CCC(=O)*)CC1; X8 = O=C(c1ccc(N2CCOCC2)nc1)*; X19 = Cc1cc(C)n(CCC(=O)*)n1; X26 = O=C1CCCN1CCC(=O)*; X32 = O=C(CCN1CCOCC1)*; Ms = CS(=O)(=O)*

Legend:
PCSK9Δhelix = molecular target: T1, PCSK9Δhelix (Homo sapiens, UniProt Q8NBP7); test: PCSK9Δhelix/Ab20 TR-FRET binding assay; conditions: TR-FRET, read-out: PCSK9Δhelix/Ab20 IC50
T1 construct: Human PCSK9 construct M1-Q692 with an engineered TEV site (residue deletion Y166, R167); made in house; host or cells: CHO
T1 sequence (Q8NBP7 with tags, fused parts or gaps limits assumed): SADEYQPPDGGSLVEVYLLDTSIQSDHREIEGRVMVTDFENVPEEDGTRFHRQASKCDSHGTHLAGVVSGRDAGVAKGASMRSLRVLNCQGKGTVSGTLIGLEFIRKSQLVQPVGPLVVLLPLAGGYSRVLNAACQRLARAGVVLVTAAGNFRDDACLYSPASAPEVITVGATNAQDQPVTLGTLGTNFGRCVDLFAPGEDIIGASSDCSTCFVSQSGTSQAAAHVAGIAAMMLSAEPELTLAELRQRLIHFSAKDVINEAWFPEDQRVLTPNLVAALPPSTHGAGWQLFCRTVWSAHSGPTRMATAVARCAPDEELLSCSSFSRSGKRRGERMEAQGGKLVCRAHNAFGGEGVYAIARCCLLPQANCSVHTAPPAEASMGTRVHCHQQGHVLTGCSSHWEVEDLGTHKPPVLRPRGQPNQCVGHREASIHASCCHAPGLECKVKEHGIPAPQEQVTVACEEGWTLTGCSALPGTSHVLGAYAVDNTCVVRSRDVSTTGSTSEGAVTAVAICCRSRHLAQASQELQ
T1 sequence (Q8NBP7 31-152 partner limits assumed): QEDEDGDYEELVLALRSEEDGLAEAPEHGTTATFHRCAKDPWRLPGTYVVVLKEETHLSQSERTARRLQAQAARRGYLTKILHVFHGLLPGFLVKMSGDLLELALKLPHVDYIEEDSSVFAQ

PCSK9 = PCSK9 (Homo sapiens, UniProt Q8NBP7); test: PCSK9/EGF(A) TR-FRET binding assay; conditions: TR-FRET; Table 8E, additional compounds; read-out: PCSK9/EGF(A) IC50
Chain of PCSK9 (Q8NBP7 153-692): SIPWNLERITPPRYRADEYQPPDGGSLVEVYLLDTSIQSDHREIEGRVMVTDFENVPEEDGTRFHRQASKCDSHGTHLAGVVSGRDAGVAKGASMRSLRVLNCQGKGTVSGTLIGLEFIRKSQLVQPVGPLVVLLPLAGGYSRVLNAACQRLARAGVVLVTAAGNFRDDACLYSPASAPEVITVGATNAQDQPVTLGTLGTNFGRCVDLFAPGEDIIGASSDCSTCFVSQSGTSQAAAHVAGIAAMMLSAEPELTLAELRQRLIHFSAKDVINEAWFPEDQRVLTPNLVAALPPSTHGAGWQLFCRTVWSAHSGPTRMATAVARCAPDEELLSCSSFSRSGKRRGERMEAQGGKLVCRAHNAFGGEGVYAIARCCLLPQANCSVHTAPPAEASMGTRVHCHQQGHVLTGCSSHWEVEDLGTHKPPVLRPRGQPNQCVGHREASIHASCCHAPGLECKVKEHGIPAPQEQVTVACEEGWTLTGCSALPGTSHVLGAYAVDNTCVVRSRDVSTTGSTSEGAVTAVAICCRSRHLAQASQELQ
Chain of PCSK9 (Q8NBP7 31-152 partner limits assumed): as the sequence (Q8NBP7 31-152 partner limits assumed) above
Method: The former was based on a TF-FRET assay to measure the association of the EGF(A) domain of the LDLR to PCSK9 (“PCSK9/EGF(A) binding assay”) whilst the latter was based on a TR-FRET assay to measure binding of Ab20 to PCSK9Δhelix (“PCSK9Δhelix/Ab20 binding assay”).
The ability of compounds to inhibit binding to PCSK9 was evaluated with a panel of time-resolved fluorescence resonance energy transfer (TR-FRET) binding assays. […] The PCSK9Δhelix/Ab20 binding assay evaluated the ability of compounds to compete with Ab20 for binding to the N-terminal groove region in a His-tagged, PCSK9Δhelix construct. […] Signal generation in the PCSK9 binding assays was dependent upon the binding interaction to bring into close proximity the His-tag on the PCSK9 and the Fc-tag on the ligand. Anti-His-APC was bound to the His-tag, and anti-Fc-europium was bound to the Fc-tag. When these two antibodies were in close proximity and were irradiated with light at 340 nm, the europium was excited and emitted energy at 615 nm. This energy was taken up by the APC and was emitted as light at 665 nm. Compounds that competed with the ligand reduced the energy transfer and thus the emission at 665 nm. In the His-EGFA-Fc molecule in the counterscreen, the two tags were always in close proximity, thus any reduction in emission at 665 nm was due to interference with the detection system.
Compounds were solubilized and dilutions were prepared in DMSO. […] The plate was centrifuged to mix the well contents and allowed to incubate for 30 min. […] The TR-FRET signal was read on a ViewLux reader (PerkinElmer) with excitation at 340 nm and emission at 615 and 665 nm with a 50-μs time delay between excitation and measurement of emission. The TR-FRET ratio was calculated as the fluorescence emission at 665 nm divided by the fluorescence emission at 615 nm. The normalized TR-FRET ratios were plotted as a function of the compound concentrations, and the IC50 values were determined using a 4-parameter logistic regression.
In black 1536-well assay plates (MaKO, Aurora® Microplates, Whitefish, Mont.), 40 nL of peptide in DMSO were preincubated with 2 μL His-tagged PCSK9 plus anti-His-allophycocyanin in assay buffer (50 mM Tris-HCl, pH 7.5, 150 mM NaCl, 2 mM CaCl2, 0.01% Tween®-20, 0.1% bovine gamma globulins, and protease inhibitor cocktail) for 30 min. Then 2 μL of Fc-tagged ligand and anti-Fc-europium in assay buffer were added and allowed to incubate for 2 h.

[1] = Table 8D, disulfide-cyclized extension peptides

## CC[C@H](C)[C@@H]1NC(=O)[C@H](CCCNC(=N)N)NC(=O)[C@H](CCCCN)NC(=O)[C@H](CC(C)C)NC(=O)[C@H](CC(N)=O)NC(=O)[C@H](Cc2c[nH]c3ccccc23)NC(=O)[C@H](CC(C)C)NC(=O)[C@@H](NC(=O)[C@@H](N)Cc2c[nH]c3ccccc23)CSSC[C@@H](C(=O)N[C@@H](Cc2c[nH]c3ccccc23)C(=O)N[C@@H](Cc2ccccc2)C(=O)O)NC(=O)[C@H](CCC(N)=O)NC(=O)[C@H](CO)NC(=O)CNC1=O [Compound 66] (H-WCLWNLKRIGSQCWF-OH; disulfide 2-13)
PCSK9Δhelix; [1]
  IC50: 12 µM

## CC[C@H](C)[C@@H]1NC(=O)[C@H](CCCNC(=N)N)NC(=O)[C@H](CCCCN)NC(=O)[C@H](CC(C)C)NC(=O)[C@H](CC(N)=O)NC(=O)[C@H](Cc2c[nH]c3ccccc23)NC(=O)[C@H](CC(C)C)NC(=O)[C@@H](NC(=O)[C@H](Cc2c[nH]c3ccccc23)NC(C)=O)CSSC[C@@H](C(=O)N[C@@H](Cc2c[nH]c3ccccc23)C(=O)N[C@@H](Cc2ccccc2)C(=O)O)NC(=O)[C@H](CCC(N)=O)NC(=O)[C@H](CO)NC(=O)CNC1=O [Compound 90] (Ac-WCLWNLKRIGSQCWF-OH; disulfide 2-13)
PCSK9Δhelix; [1]
  IC50: 7.38 µM

## CC[C@H](C)[C@H](NC(=O)[C@H](CCCNC(=N)N)NC(=O)[C@@H](NC(=O)[C@H](CC(C)C)NC(=O)[C@H](CC(N)=O)NC(=O)[C@H](Cc1c[nH]c2ccccc12)NC(=O)CCN1CCS(=O)(=O)CC1)C(C)C)C(=O)NCC(=O)N[C@@H](CC(C)C)C(=O)N[C@@H](CC(C)C)C(=O)N[C@@H](CCCNC(=N)N)C(N)=O [Compound 126] (X13-WNLVRIGLLR-NH2)
PCSK9Δhelix; Table 8E, additional compounds
  IC50: 19 µM
PCSK9
  IC50: ≥ 50 µM

## CC[C@H](C)[C@H](NC(=O)[C@H](CCCNC(=N)N)NC(=O)[C@@H](NC(=O)[C@H](CC(C)C)NC(=O)[C@H](CC(N)=O)NC(=O)[C@H](Cc1c[nH]c2ccccc12)NC(=O)[C@@H]1C[C@H]1c1cnn(C)c1)C(C)C)C(=O)NCC(=O)N[C@@H](CC(C)C)C(=O)N[C@@H](CC(C)C)C(=O)N[C@@H](CCCNC(=N)N)C(N)=O [Compound 127] (X5-WNLVRIGLLR-NH2)
PCSK9Δhelix; Table 8E, additional compounds
  IC50: 29 µM
PCSK9
  IC50: ≥ 50 µM

## CC[C@H](C)[C@H](NC(=O)[C@H](CCCNC(=N)N)NC(=O)[C@@H](NC(=O)[C@H](CC(C)C)NC(=O)[C@H](CC(N)=O)NC(=O)[C@H](Cc1c[nH]c2ccccc12)NC(=O)CCN1CCCC1=O)C(C)C)C(=O)NCC(=O)N[C@@H](CC(C)C)C(=O)N[C@@H](CC(C)C)C(=O)N[C@@H](CCCNC(=N)N)C(N)=O [Compound 128] (X26-WNLVRIGLLR-NH2)
PCSK9Δhelix; Table 8E, additional compounds
  IC50: 7.5 µM
PCSK9
  IC50: ≥ 50 µM

## CC[C@H](C)[C@H](NC(=O)[C@H](CCCNC(=N)N)NC(=O)[C@@H](NC(=O)[C@H](CC(C)C)NC(=O)[C@H](CC(N)=O)NC(=O)[C@H](Cc1c[nH]c2ccccc12)NC(=O)c1cnn(C2CCN(C)C2)c1)C(C)C)C(=O)NCC(=O)N[C@@H](CC(C)C)C(=O)N[C@@H](CC(C)C)C(=O)N[C@@H](CCCNC(=N)N)C(N)=O (stereo partly drawn) [Compound 129] (X24-WNLVRIGLLR-NH2)
PCSK9Δhelix; Table 8E, additional compounds
  IC50: 23 µM
PCSK9
  IC50: ≥ 50 µM

## CC[C@H](C)[C@H](NC(=O)[C@H](CCCNC(=N)N)NC(=O)[C@@H](NC(=O)[C@H](CC(C)C)NC(=O)[C@H](CC(N)=O)NC(=O)[C@H](Cc1c[nH]c2ccccc12)NC(=O)CC1CCN(Cc2ccccn2)CC1)C(C)C)C(=O)NCC(=O)N[C@@H](CC(C)C)C(=O)N[C@@H](CC(C)C)C(=O)N[C@@H](CCCNC(=N)N)C(N)=O [Compound 130] (X3-WNLVRIGLLR-NH2)
PCSK9Δhelix; Table 8E, additional compounds
  IC50: 8.6 µM
PCSK9
  IC50: ≥ 50 µM

## CC[C@H](C)[C@H](NC(=O)[C@H](CCCNC(=N)N)NC(=O)[C@@H](NC(=O)[C@H](CC(C)C)NC(=O)[C@H](CC(N)=O)NC(=O)[C@H](Cc1c[nH]c2ccccc12)NC(=O)CCN1CCN(C(N)=O)CC1)C(C)C)C(=O)NCC(=O)N[C@@H](CC(C)C)C(=O)N[C@@H](CC(C)C)C(=O)N[C@@H](CCCNC(=N)N)C(N)=O [Compound 131] (X34-WNLVRIGLLR-NH2)
PCSK9Δhelix; Table 8E, additional compounds
  IC50: 6.7 µM
PCSK9
  IC50: ≥ 50 µM

## CC[C@H](C)[C@H](NC(=O)[C@H](CCCNC(=N)N)NC(=O)[C@@H](NC(=O)[C@H](CC(C)C)NC(=O)[C@H](CC(N)=O)NC(=O)[C@H](Cc1c[nH]c2ccccc12)NC(=O)CCc1c[nH]cn1)C(C)C)C(=O)NCC(=O)N[C@@H](CC(C)C)C(=O)N[C@@H](CC(C)C)C(=O)N[C@@H](CCCNC(=N)N)C(N)=O [Compound 132] (Desaminohistidyl-WNLVRIGLLR-NH2)
PCSK9Δhelix; Table 8E, additional compounds
  IC50: 9 µM
PCSK9
  IC50: ≥ 50 µM

## CC[C@H](C)[C@H](NC(=O)[C@H](CCCNC(=N)N)NC(=O)[C@@H](NC(=O)[C@H](CC(C)C)NC(=O)[C@H](CC(N)=O)NC(=O)[C@H](Cc1c[nH]c2ccccc12)NC(=O)CC1CCN(S(C)(=O)=O)CC1)C(C)C)C(=O)NCC(=O)N[C@@H](CC(C)C)C(=O)N[C@@H](CC(C)C)C(=O)N[C@@H](CCCNC(=N)N)C(N)=O [Compound 133] (Ms-[X14]WNLVRIGLLR-NH2)
PCSK9Δhelix; Table 8E, additional compounds
  IC50: 17 µM
PCSK9
  IC50: ≥ 50 µM

## CC[C@H](C)[C@H](NC(=O)[C@H](CCCNC(=N)N)NC(=O)[C@@H](NC(=O)[C@H](CC(C)C)NC(=O)[C@H](CC(N)=O)NC(=O)[C@H](Cc1c[nH]c2ccccc12)NC(=O)c1ccc(N2CCOCC2)nc1)C(C)C)C(=O)NCC(=O)N[C@@H](CC(C)C)C(=O)N[C@@H](CC(C)C)C(=O)N[C@@H](CCCNC(=N)N)C(N)=O [Compound 134] (X8-WNLVRIGLLR-NH2)
PCSK9Δhelix; Table 8E, additional compounds
  IC50: 4.2 µM
PCSK9
  IC50: ≥ 50 µM

## CC[C@H](C)[C@H](NC(=O)[C@H](CCCNC(=N)N)NC(=O)[C@@H](NC(=O)[C@H](CC(C)C)NC(=O)[C@H](CC(N)=O)NC(=O)[C@H](Cc1c[nH]c2ccccc12)NC(=O)[C@@H]1C[C@@H]1c1cnn(C)c1)C(C)C)C(=O)NCC(=O)N[C@@H](CC(C)C)C(=O)N[C@@H](CC(C)C)C(=O)N[C@@H](CCCNC(=N)N)C(N)=O [Compound 135] (X44-WNLVRIGLLR-NH2)
PCSK9Δhelix; Table 8E, additional compounds
  IC50: 10 µM
PCSK9
  IC50: ≥ 50 µM

## CC[C@H](C)[C@H](NC(=O)[C@H](CCCNC(=N)N)NC(=O)[C@@H](NC(=O)[C@H](CC(C)C)NC(=O)[C@H](CC(N)=O)NC(=O)[C@H](Cc1c[nH]c2ccccc12)NC(=O)CCn1nc(C)cc1C)C(C)C)C(=O)NCC(=O)N[C@@H](CC(C)C)C(=O)N[C@@H](CC(C)C)C(=O)N[C@@H](CCCNC(=N)N)C(N)=O [Compound 136] (X19-WNLVRIGLLR-NH2)
PCSK9Δhelix; Table 8E, additional compounds
  IC50: 9 µM
PCSK9
  IC50: ≥ 50 µM

## CC[C@H](C)[C@H](NC(=O)[C@H](CCCNC(=N)N)NC(=O)[C@@H](NC(=O)[C@H](CC(C)C)NC(=O)[C@H](CC(N)=O)NC(=O)[C@H](Cc1c[nH]c2ccccc12)NC(=O)CCN1CCOCC1)C(C)C)C(=O)NCC(=O)N[C@@H](CC(C)C)C(=O)N[C@@H](CC(C)C)C(=O)N[C@@H](CCCNC(=N)N)C(N)=O [Compound 137] (X32-WNLVRIGLLR-NH2)
PCSK9Δhelix; Table 8E, additional compounds
  IC50: 6.7 µM
PCSK9
  IC50: ≥ 50 µM

## CC[C@H](C)[C@H](NC(=O)[C@H](CCCCNC(=N)N)NC(=O)[C@@H](NC(=O)[C@H](CC(C)C)NC(=O)[C@H](CC(N)=O)NC(=O)[C@H](Cc1c[nH]c2ccccc12)NC(=O)[C@@H]1C[C@@H]1c1cccnc1)C(C)C)C(=O)NCC(=O)N[C@@H](CC(C)C)C(=O)N[C@@H](CC(C)C)C(=O)N[C@@H](CCCNC(=N)N)C(N)=O [Compound 221] (X21-WNLV[hArg]IGLLR-NH2)
PCSK9
  IC50: 9.5 µM
